# Data from publication PMC8146980, “An Arrhythmic Mutation E7K Facilitates TRPM4 Channel Activation via Enhanced PIP2 Interaction” (Cells, 2021).
# Experiments:
# [1] = target: T1, TRPM4 (TRPM4b) (Homo sapiens, UniProt Q8TD43); assay: inside-out patch clamp, HEK293, reactivation after desensitization, Hill fit; type: cell-based; conditions: read-out: apparent EC50; Kd (abstract)
# T1 construct: full-length human TRPM4b CDS subcloned into pcI-neo, expressed in HEK293 cells (original clone in pcDNA4TO-Flag); homotetramer (known biology)
# [2] = target: T2, TRPM4 (TRPM4b) (Homo sapiens, UniProt Q8TD43, E7K); assay: as above; type: cell-based; conditions: read-out: apparent EC50; Kd (abstract)
# T2 construct: full-length human TRPM4b CDS subcloned into pcI-neo, expressed in HEK293 cells (original clone in pcDNA4TO-Flag); homotetramer (known biology)
# T2 sequence (Q8TD43 whole entry E7K): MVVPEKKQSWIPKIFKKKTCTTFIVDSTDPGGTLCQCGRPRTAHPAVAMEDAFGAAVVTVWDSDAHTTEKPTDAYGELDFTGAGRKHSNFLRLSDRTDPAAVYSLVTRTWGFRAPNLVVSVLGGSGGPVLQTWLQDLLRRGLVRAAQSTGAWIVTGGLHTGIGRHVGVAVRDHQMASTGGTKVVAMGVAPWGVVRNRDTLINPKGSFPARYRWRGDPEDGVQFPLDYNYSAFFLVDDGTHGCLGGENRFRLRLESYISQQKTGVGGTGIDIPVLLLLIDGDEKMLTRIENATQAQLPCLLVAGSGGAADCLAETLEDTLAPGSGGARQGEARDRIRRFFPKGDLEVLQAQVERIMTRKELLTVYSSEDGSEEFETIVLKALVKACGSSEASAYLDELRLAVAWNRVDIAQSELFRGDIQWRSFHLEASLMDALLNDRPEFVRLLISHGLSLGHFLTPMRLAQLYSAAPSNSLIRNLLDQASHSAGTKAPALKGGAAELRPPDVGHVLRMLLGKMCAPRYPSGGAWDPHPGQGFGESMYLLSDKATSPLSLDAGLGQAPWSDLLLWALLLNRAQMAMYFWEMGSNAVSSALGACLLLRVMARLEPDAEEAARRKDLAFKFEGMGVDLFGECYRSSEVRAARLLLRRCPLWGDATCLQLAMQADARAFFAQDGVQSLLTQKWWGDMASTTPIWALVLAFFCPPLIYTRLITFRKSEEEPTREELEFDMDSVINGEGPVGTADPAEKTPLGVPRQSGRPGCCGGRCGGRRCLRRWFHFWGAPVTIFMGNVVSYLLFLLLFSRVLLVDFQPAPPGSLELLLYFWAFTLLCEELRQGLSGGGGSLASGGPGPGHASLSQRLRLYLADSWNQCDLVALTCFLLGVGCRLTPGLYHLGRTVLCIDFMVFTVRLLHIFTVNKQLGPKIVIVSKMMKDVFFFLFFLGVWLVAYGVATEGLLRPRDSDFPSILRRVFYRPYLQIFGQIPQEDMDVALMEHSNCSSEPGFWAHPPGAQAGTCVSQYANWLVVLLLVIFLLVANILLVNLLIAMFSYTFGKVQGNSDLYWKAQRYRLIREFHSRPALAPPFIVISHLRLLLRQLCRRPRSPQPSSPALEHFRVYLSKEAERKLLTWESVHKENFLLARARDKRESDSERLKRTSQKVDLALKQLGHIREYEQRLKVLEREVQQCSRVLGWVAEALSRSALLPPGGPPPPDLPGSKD
# T1 sequence (Q8TD43 whole entry): as the sequence (Q8TD43 whole entry E7K) above, with K7E counted along it
compound,measurement,setting,value
"CCCCCCCC(=O)OC[C@H](COP(=O)(O)O[C@@H]1[C@H](O)[C@H](O)[C@@H](OP(=O)(O)O)[C@H](OP(=O)(O)O)[C@H]1O)OC(=O)CCCCCCC [diC8-PI(4,5)P2]",EC50,[1],2.4 ± 0.23 µM
same,EC50,[2],1.44 ± 0.2 µM
